We go through 7 molecules from patent publication US6756399B2, “Use of lipoxygenase inhibitors and PPAR ligands as anti-cancer therapeutic and intervention agents” (The United States of America as represented by the …, priority 2001, dated 2004).

Entries after “also recorded” stand apart in the source; their conditions may differ.

For test [1], the system named is A549, H510, H345, and N417 lung cancer cell lines. Put plainly: Growth inhibition (MTT, BrdU) in lung cancer cell lines. The test is classed as cell-based. Conditions: all tested cell lines (A549, H510, H345, N417). The protocol:
(§1) Lung cancer cell lines used for PPAR analysis included A549, H510, H345, and N417. The FLAP inhibitor: MK886 and COX inhibitor: indomethacin, and combinations thereof, were used as AA inhibitors. PPARs for the analysis included PGJ2 (γ ligand); ciglitazone (γ agonist); LY171882 (γ receptor activator); and WY 14643 (α activator). In order to analyze PPARs in lung cancer cells, growth inhibition (MTT, BrdU); apoptosis (Caspase 3/7 and M30 IHC); and mRNA Northern analyses were performed.

A further test concerns H345 cell line. Kind of test: Apo-1 Caspase 3/7 apoptosis assay, H345. The test is classed as cell-based. Here is the method:
as §1
(§2) Apoptosis was determined at particular time points using the Apo-1Caspase 3/7 assay.

Test [2] concerns ZR-75 breast cancer cell line. Put plainly: Proliferation assay, breast cancer cell line ZR-75. The format is cell-based. The note with it: ZR-75, compared to vehicle control. The protocol: (§3) Breast cancer cell line ZR-75 was grown in the presence of 5 μM inhibitors for 24 and 48 hrs, total RNA was isolated and RT-PCR performed for PPARα and PPARγ using specific primers. Results are presented as percent of control after normalizing with the actin values. The experiment was repeated three times. The error bars indicate standard deviation. […] All values were determined by assessment of % growth inhibition calculated from the optical density value, with a minimum of 6 replicates from at least three different experiments per cell line. The ligands included WY-14643 (open circles); LY 171883 (closed circles); fenofibrate (triangles); clofibrate (diamonds).
Cell lines used in the study were obtained from the American Type Culture Collection (Rockville, Md.). They included MCF-7, ZR-75, T47 D; SKBR-3, and MB-231. The cells were maintained in RPMI-1640, or MEM Zinc option medium, supplemented with 5% fetal bovine serum (FBS), penicillin (50 units/ml) and streptomycin (50 μg/ml) (Life Technologies, Gaithersburg, Md.), in a humidified atmosphere of 95% air and 5% CO2 at 37° C.

Test [3] relates to T47D breast cancer cell line. Put plainly: Proliferation assay, breast cancer cell line T47D. The test is classed as cell-based. The note with it: compared to vehicle control. The protocol:
as §3
(A) Northern blot analysis for PPARγ (1.8 Kb), of breast cancer cell line T47D treated with 5 μM MK 886 for 6, 12, 24 hrs and untreated control. RNA was isolated as described in Methods, and […] of total RNA was loaded per lane. Ethidium bromide staining of 28S rRNA was used to check for equal loading and RNA integrity (lower panel). (B) RNA isolated from T47D cells treated with 5 μM MK 886 for different time periods were subjected to RT-PCR using specific primers for PPARγ. The PCR products were normalized to actin gene and 18S. PCR products were quantified by densitometry and the data points presented are expressed as percent of control, and represent mean and SEM of three experiments. […]

Test [4] concerns A549 cell line. Kind of test: M30 immunohistochemistry for apoptosis, A549. The format is cell-based. Here is the method:
as §1
(§4) M30 Immunohistochemistry was performed to test for apoptosis in the various lung cancer cell lines. […] Apoptosis was also observed in the H345 and N417 cell lines, but PPAR induction was low and no significant increase in PPAR protein expression was observed when tested in combination with PGJ2. […] In summary, combinations of FLAP inhibitors, cyclooxygenase inhibitors, and PPARγ ligands generally had additive effects in reducing lung cancer cell line growth; this generally correlated with measures of enhanced apoptosis.

The subject of test [5] is PPARγ. Kind of test: Northern analysis, PPARγ mRNA in H345. The test is classed as cell-based. Here is the method: as §1
(§5) Northern analysis was performed with untreated cells and cells treated with AA inhibitors: MK886, indomethacin, or the combination of MK886 and indomethacin. […] There was also no expression after 24 hours of exposure to AA inhibitors, confirming previous Northern analyses. […] In the H510 cell line, no expression for PPARγ was observed.

Test [6] deals with PPARγ. Kind of test: Northern analysis, PPARγ mRNA in A549. The format is cell-based. The protocol:
as §1, §5

For test [7], the system named is A549 cell line. Kind of test: Apo-1 Caspase 3/7 apoptosis assay, A549. The format is cell-based. The protocol: as §1, §2
The subject of the next test is N417 cell line. Put plainly: Apo-1 Caspase 3/7 apoptosis assay, N417. The format is cell-based. The protocol: as §1, §2
Another test concerns 15-HETE. Kind of test: 15-HETE production after exposure to FLAP inhibitor. The format is cell-based. The note with it: in response to exposure to MK 886.
For test [8], the system named is PPARα. Kind of test: Northern analysis, PPARα mRNA in A549. The test is classed as cell-based. The protocol:
as §1, §5

The test system of test [9] is H510 cell line. Put plainly: Apo-1 Caspase 3/7 apoptosis assay, H510. The format is cell-based. The protocol: as §1, §2
For test [10], the system named is H510 cell line. Put plainly: M30 immunohistochemistry for apoptosis, H510. The format is cell-based. The protocol:
as §1, §4

Test [11] has as its system PPARα. Kind of test: RT-PCR for PPARα mRNA in breast cancer cell line ZR-75. The format is cell-based. The note with it: ZR-75, 5 μM, 24 and 48 hours. Here is the method: as §3
(§6) Cells were grown for 24 hrs or 48 hrs in the presence or absence of inhibitors at 5 μM concentration. RNA was isolated using the Trizol method (Life Technologies, Gaithersburg, Md.), and RT-PCR was performed using specific primers for PPAR and actin control genes.
(§7) Forward (F) and reverse (R) primers used to detect PPAR cDNAs were: […]
(§8) The ethidium bromide stained image was digitized and the optical density calculated using the NIH Image program. Values were normalized with the actin value obtained with commercially available primers (Clontech Inc., Palo Alto, Calif. ). These experiments were repeated three times.

The test system of the next test is PPARδ. Put plainly: Northern analysis, PPARδ mRNA in A549. The test is classed as cell-based. Here is the method:
as §1, §5

The subject of test [12] is PPARγ. Put plainly: Semi-quantitative RT-PCR for PPARγ in T47D cells. The note with it: 5 μM MK886, different time periods. The test is classed as cell-based. Here is the method:
(§9) (A) Northern blot analysis for PPARγ (1.8 Kb), of breast cancer cell line T47D treated with 5 μM MK 886 for 6, 12, 24 hrs and untreated control. RNA was isolated as described in Methods, and […] of total RNA was loaded per lane. Ethidium bromide staining of 28S rRNA was used to check for equal loading and RNA integrity (lower panel). (B) RNA isolated from T47D cells treated with 5 μM MK 886 for different time periods were subjected to RT-PCR using specific primers for PPARγ. The PCR products were normalized to actin gene and 18S. PCR products were quantified by densitometry and the data points presented are expressed as percent of control, and represent mean and SEM of three experiments. (C) Breast cancer cell line T47D, was incubated with various concentrations of MK886 (circles) and then analyzed using a proliferation assay. After 12 hr incubation, the inhibitors were removed and replaced by media alone (open circles), or media with 4 μM LY 171883 (closed circles). LY 171883 in the presence of media without the FLAP inhibitor is shown (stars). After an additional 24 hr incubation time, the experiments were terminated. All values were determined by assessment of % growth inhibition calculated from the optical density value, with a minimum of 6 replicates from at least three different experiments. The error bars indicate standard deviation. […]

Test [13] concerns PPARγ. Kind of test: Northern blot analysis for PPARγ in T47D cells. Conditions: 5 μM MK886, 0, 6, 12, 24 hours. The test is classed as cell-based, human. The protocol:
as §9, with “(stars).” for “(stars). After an additional 24 hr incubation time, the experiments were terminated. All values were determined by assessment of % growth inhibition calculated from the optical density value, with a minimum of 6 replicates from at least three different experiments. The error bars indicate standard deviation.”
After treatment for the indicated time points (5 μM MK886 at 0, 6, 12, 24 hours), cells were washed with PBS and total RNA was extracted using the RNeasy Mini Kit (QUIAGEN Inc., Valencia, Calif.). […] Equal loading and integrity of RNA was monitored by ethidium bromide staining (FIG. 2A). […]

For test [14], the system named is PPARγ. Put plainly: RT-PCR for PPARγ mRNA in breast cancer cell line ZR-75. The format is cell-based. The note with it: ZR-75, 5 μM, 24 and 48 hours. The protocol: as §3, §6, §7, §8

Turning to `CC1(COc2ccc(CC3SC(=O)NC3=O)cc2)CCCCC1` (racemic) [ciglitazone, (±)-5-[4-(1-Methylcyclohexylmethoxy)-benzyl] thiazolidine-2,4-dione], the “growth of lung cancer cell lines” value in test [1] is given as “reduced growth in a dose dependent manner”. Besides, the “apoptosis (Caspase 3/7)” value in the test on H345 cell line is reported as “induced apoptosis”.

Regarding `CCCc1c(OCCCCc2nnn[nH]2)ccc(C(C)=O)c1O` [LY 171883], the “breast tumor cell growth” value in test [2] and in test [3] was “dose dependent growth reduction” in each case. Also, in the test with H345 cell line, the “apoptosis (Caspase 3/7)” value was “neither LY171882 or WY 14643 (α activator) induced apoptosis”. The “apoptosis (M30 immunohistochemistry)” value in the test on A549 cell line [4] is “Some apoptosis also occurred”.

For the molecule `CC(C)c1ccc2c(c1)c(SC(C)(C)C)c(CC(C)(C)C(=O)O)n2Cc1ccc(Cl)cc1` [MK886, 3-[1-(4-chlorobenzyl)-3-t-butyl-thio-5-isopropylindol-2-yl]-2,2-dimethylpropanoic acid], the “PPARγ expression (Northern)” value in the test on PPARγ [5] was “PPARγ expression was induced”. Besides, the “PPARγ mRNA (Northern)” value in the test with PPARγ [6] is given as “Up-regulation of PPARγ”. The “apoptosis (Caspase 3/7)” value was “increased apoptosis” in the test on A549 cell line [7], “two fold increase in apoptosis” in the test on N417 cell line, “two fold induction of apoptosis” with H510 cell line [9] and “induced apoptosis” with H345 cell line. For the same molecule, the “growth of lung cancer cell lines” value in [1] is “inhibited all tested cell lines in a dose dependent manner ranging from 0.25 to 2.0 μM”. Moreover, the 15-HETE production entry with 15-HETE is “large increase”. Moreover, the “PPARα mRNA (Northern)” value in the test on PPARα [8] is on record as “no mRNA for PPARα”. Also, the “apoptosis (M30 immunohistochemistry)” value in the test on H510 cell line [10] was “apoptosis in the H510 cell line was observed”. Besides, the PPARα expression entry with PPARα [11] was “up-regulation”. In addition, the “PPARδ mRNA (Northern)” value in the test on PPARδ is “some mRNA observed for PPARδ”. Further, in the test on PPARγ [12], the “PPARγ induction (semi-quantitative RT-PCR)” value is reported as “induction of PPARγ is more protracted”. Further, the “PPARγ expression (Northern blot)” value with PPARγ [13] is “induction of PPARγ is evident within six hours; also recorded: PPARγ expression levels increase”. In the test with PPARγ [14], the PPARγ expression result is reported as “up-regulation”.

For the molecule `CC(Cc1ccc(O)c(O)c1)C(C)Cc1ccc(O)c(O)c1` (stereo not drawn) [NDGA, Nordihydroguaiaretic acid], in the test with PPARα [11], the PPARα expression entry is “up-regulation”. Besides, the PPARγ expression entry with PPARγ [14] is “up-regulation”.

As for `CCCCC/C=C/C=C1/C(=O)C=C[C@@H]1C/C=C\CCCC(=O)O` [PGJ2, 15-Deoxy-Δ^12,14-Prostaglandin J2], the “PPARγ expression (Northern)” value with PPARγ [5] is on record as “down regulated mRNA”. Besides, in the test with PPARγ [6], the “PPARγ mRNA (Northern)” value is given as “mRNA decreases to those levels observed with control”. Besides, in test [1], the “growth of lung cancer cell lines” value is “reduced growth in a dose dependent manner”. Besides, in the test with H510 cell line [10], the “apoptosis (M30 immunohistochemistry)” value was “apoptosis in the H510 cell line was observed”.

For the molecule `CCOC(=O)C(C)(C)Oc1ccc(Cl)cc1` [clofibrate, 2-(4-chlorophenoxy)-2-methylpropanoic acid ethyl ester], the “breast tumor cell growth” value in test [2] and in test [3] was “dose dependent growth reduction” throughout.

Turning to `COc1ccc2c(c1)c(CC(=O)O)c(C)n2C(=O)c1ccc(Cl)cc1` [indomethacin], in the test on PPARγ [6], the “PPARγ mRNA (Northern)” value was “Up-regulation of PPARγ”. For the same molecule, the “growth of lung cancer cell lines” value in test [1] is recorded as “no effect on growth, even at a concentration of greater than 10 μM”. Moreover, in the test on H510 cell line [9], the “apoptosis (Caspase 3/7)” value is listed as “two fold induction of apoptosis”. For the same molecule, the “apoptosis (M30 immunohistochemistry)” value in the test on H510 cell line [10] was “apoptosis in the H510 cell line was observed”.
